The values that follow come from patent US6894061B2, “Substituted dihydrophenanthridinesulfonamides” (Wyeth, priority 2002, dated 2005).

One data set has as its system ER/NF-κB. The experiment in a line: ER/NF-κB luciferase reporter in Ad5-wt-ERα infected HAECT-1 cells. The data set is classed as cell-based, human. The conditions noted are these: Homo sapiens, HAECT1, IL-1β; for Emax: read-out: ER/NFκB Efficacy (%)*; for IC50: read-out: ER/NFκB IC50. The protocol: (§1) After four hours, cells were washed with EBM-BSA and incubated overnight in the same medium. Following overnight incubation, cells were washed with EBM-BSA and infected for 2 hours with 6 mL of a 1:10 dilution of Ad5-3x(NFκB).Luc virus (Adenovirus luciferase expression vector driven by 3 repeats of the MHC NFκb site 5′ to the thymidine kinase promoter) in EBM-BSA. After two hours, cells were washed and incubated at 34° C. for 1 hour. […] Control (no ER infection) cells were processed as above without Ad5-wt-hERα virus infection.
(§2) ERα infected HAECT-1 cells or control cells were thawed, diluted 42× in warm EBM-BSA, plated into 96-well plates at 0.1 mL/well and incubated for 4 hours at 34° C. Test compounds were added to the cells as 2× stocks in EBM-BSA containing 2 ng/mL IL-1β (R&D Systems) and the 96-well plates were returned to the incubator (34° C.). After 15-20 hours, 100 μL aliquots of media were removed from the cells and assayed for IL-6 content using a BioSource human IL-6 ELISA Kit. Cells were subsequently washed with 300 μL of Dulbecco's phosphate buffered saline and lysed in 50 μL of Cell Culture Lysis Reagent (Promega). Luciferase was determined on a Wallac Victor^2 Luminometer (Gaithersburg, Md.) using 10 μL of lysate and mixing with 100 μL of Promega Luciferase Assay reagent. Creatine kinase was determined from the rate of increase in A340 following addition of 100 μL of CK assay reagent (Sigma, cat. No 47-10) to the remainder of the cell lysate.
(§3) For IC50 and EC50 calculations, mean IL-6, luciferase or CK values versus log10 of the compound concentration were fitted to a four parameter logistic equation. The IC50/EC50 value, ‘Hill slope’, upper and lower limits of the curve were iteratively estimated.
For orientation: A reporter such as luciferase makes a cellular process visible.

A further data set deals with creatine kinase. The experiment in a line: Creatine kinase (CK) test procedure in Ad5-wt-ERα infected HAECT-1 cells. The class given is cell-based, human. The conditions noted are these: Homo sapiens, HAECT1, Ad5-wt-ERα infected HAECT-1 cells; for Emax at 10 µM / Emax: read-out: Creatin Kinase Efficacy (%); for EC50: read-out: Creatin Kinase EC50. As for the experimental part: as §1, §2, §3

For orientation: melting point means the temperature of the solid-liquid transition. For `Cc1ccc2c(c1)C(C)N(S(=O)(=O)c1ccc(O)cc1)c1ccccc1-2` (centres unmarked) [Example 60, 4-[(6,8-Dimethylphenanthridin-5(6H)-yl)sulfonyl]phenol], the melting point is 111 to 113 °C. Besides, in the data set on ER/NF-κB, the Emax amounted to 95% and the IC50 came out at 0.257 µM. Further, the Emax at 10 µM in the data set with creatine kinase is less than 35%.

`CCCCC1c2ccccc2-c2ccccc2N1S(=O)(=O)c1ccc(O)cc1` (centres unmarked) [Example 7, 4-[(6-Butylphenanthridin-5(6H)-yl)sulfonyl]phenol] gave a melting point of 149 to 151 °C. Also, in the data set with ER/NF-κB, the Emax was 7% and the IC50 was found to be 0.47 µM. In addition, in the data set on creatine kinase, the Emax at 10 µM is less than 35%.

One may read the EC50 as the concentration that produces a half-maximal response. In the case of `CC1c2ccccc2-c2ccccc2N1S(=O)(=O)c1ccc(O)c(F)c1` (centres unmarked) [Example 56, 2-Fluoro-4-[(6-methylphenanthridin-5(6H)-yl)sulfonyl]phenol], the melting point lay within 172 to 174 °C. Further, in the data set on ER/NF-κB, the Emax worked out at 100% and the IC50 worked out at 1.44 µM. Further, in the data set on creatine kinase, the EC50 was found to be 0.75 µM and the Emax is 34%.

Compound `C[C@@H]1c2ccccc2-c2ccccc2N1S(=O)(=O)c1ccc(O)cc1` (single isomer, unassigned) [Example 3] showed a melting point of 181 to 183 °C. For the same compound, in the data set with ER/NF-κB, the Emax was 97% and the IC50 amounted to 1.51 µM. Moreover, the Emax at 10 µM in the data set with creatine kinase is less than 35%.

With `Cc1cc(S(=O)(=O)N2c3ccc(Br)cc3-c3ccccc3C2C)ccc1O` (centres unmarked) [Example 6, 4-[(2-Bromo-6-methylphenanthridin-5(6H)-yl)sulfonyl]-2-methylphenol], the melting point is 193 to 195 °C. In addition, in the data set on ER/NF-κB, the Emax is 92% and the IC50 came to 0.474 µM. For the same compound, the Emax at 10 µM in the data set on creatine kinase was less than 35%.

In turn, `O=S(=O)(c1ccc(O)cc1)N1c2ccccc2-c2ccccc2[C@H]1c1ccccc1` (single isomer, unassigned) [Example 10] had a melting point of 208 to 210 °C. In addition, in the data set with ER/NF-κB, the Emax came out at 95% and the IC50 was 0.061 µM. The Emax at 10 µM in the data set on creatine kinase is less than 35%.

`Cc1cc(S(=O)(=O)N2c3ccccc3-c3ccccc3C2C)ccc1O` (centres unmarked) [Example 5, 2-Methyl-4-[(6-methylphenanthridin-5(6H)-yl)sulfonyl]phenol] yielded a melting point of 186 to 188 °C. For the same compound, in the data set with ER/NF-κB, the Emax was determined as 102% and the IC50 came to 0.433 µM. Besides, the Emax at 10 µM in the data set on creatine kinase is less than 35%.

In turn, `CCC1c2cc(F)ccc2-c2cc(C)ccc2N1S(=O)(=O)c1ccc(O)cc1` (centres unmarked) [Example 51, 4-[(6-Ethyl-8-fluoro-2-methylphenanthridin-5(6H)-yl)sulfonyl]phenol] gave a melting point of 197 to 200 °C. Further, in the data set with ER/NF-κB, the Emax stood at 106% and the IC50 turned out to be 0.056 µM. Also, in the data set with creatine kinase, the EC50 was determined as 0.077 µM and the Emax stood at 27%.

For the compound `CC1c2ccccc2-c2ccccc2N1S(=O)(=O)c1ccc(O)c(O)c1` (centres unmarked) [Example 23, 4-[(6-Methylphenanthridin-5(6H)-yl)sulfonyl]benzene-1,2-diol], the melting point was 163 to 165 °C. In addition, the IC50 in the data set with ER/NF-κB is more than 10 µM. In the data set with creatine kinase, the Emax at 10 µM was less than 35%.

Take `O=S(=O)(c1ccc(O)cc1)N1c2ccccc2-c2ccccc2[C@@H]1c1ccccc1` (single isomer, unassigned) [Example 11]: the melting point is 210 to 212 °C. Besides, in the data set on ER/NF-κB, the Emax stood at 115% and the IC50 worked out at 0.168 µM. Also, in the data set with creatine kinase, the EC50 came out at 0.117 µM and the Emax was 37%.

The compound `CC1c2cc(F)ccc2-c2ccccc2N1S(=O)(=O)c1ccc(O)cc1` (centres unmarked) [Example 32, 4-[(8-Fluoro-6-methylphenanthridin-5(6H)-yl)sulfonyl]phenol] yielded a melting point of 188 °C. Further, in the data set with ER/NF-κB, the Emax worked out at 96% and the IC50 was determined as 0.096 µM. For the same compound, in the data set with creatine kinase, the EC50 turned out to be 0.302 µM and the Emax worked out at 26%.
